Source: PubChem BioAssay (NCI)
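Assay format: 96-well plates, 48-hour exposure. TGI: total growth inhibition.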

Experiments:
Test in all cases: inhibition of tumour cell growth, NCI panel, 48 h
OVCAR-5 ovarian = tested on: OVCAR-5 ovarian
TK-10 renal = tested on: TK-10 renal
HL-60(TB) leukemia = tested on: HL-60(TB) leukemia
SF-539 CNS = tested on: SF-539 CNS
CAKI-1 renal = tested on: CAKI-1 renal
SK-MEL-28 melanoma = tested on: SK-MEL-28 melanoma
HOP-62 NSCLC = tested on: HOP-62 NSCLC
SNB-75 CNS = tested on: SNB-75 CNS
DMS 114 small cell lung = tested on: DMS 114 small cell lung
NCI-H226 lung = tested on: NCI-H226 lung
SF-295 CNS = tested on: SF-295 CNS
SNB-19 CNS = tested on: SNB-19 CNS
MOLT-4 leukemia = tested on: MOLT-4 leukemia
HCC-2998 colon = tested on: HCC-2998 colon
KM20L2 colon = tested on: KM20L2 colon
SF-268 CNS = tested on: SF-268 CNS
CCRF-CEM leukemia = tested on: CCRF-CEM leukemia
DLD-1 colon = tested on: DLD-1 colon
SK-OV-3 ovarian = tested on: SK-OV-3 ovarian
EKVX NSCLC = tested on: EKVX NSCLC
KM12 colon = tested on: KM12 colon
U251 CNS = tested on: U251 CNS
RXF 393 renal = tested on: RXF 393 renal
SK-MEL-5 melanoma = tested on: SK-MEL-5 melanoma
OVCAR-4 ovarian = tested on: OVCAR-4 ovarian
M19-MEL melanoma = tested on: M19-MEL melanoma
HOP-18 NSCLC = tested on: HOP-18 NSCLC
HOP-92 NSCLC = tested on: HOP-92 NSCLC
IGROV1 ovarian = tested on: IGROV1 ovarian
A498 renal = tested on: A498 renal
NCI-H23 lung = tested on: NCI-H23 lung
ACHN renal = tested on: ACHN renal
HCT-15 colon = tested on: HCT-15 colon
MALME-3M melanoma = tested on: MALME-3M melanoma
OVCAR-3 ovarian = tested on: OVCAR-3 ovarian
UACC-62 melanoma = tested on: UACC-62 melanoma
NCI-H522 lung = tested on: NCI-H522 lung
LXFL 529 NSCLC = tested on: LXFL 529 NSCLC
SK-MEL-2 melanoma = tested on: SK-MEL-2 melanoma
SN12C renal = tested on: SN12C renal
SR leukemia = tested on: SR leukemia
UO-31 renal = tested on: UO-31 renal
NCI-H460 lung = tested on: NCI-H460 lung
UACC-257 melanoma = tested on: UACC-257 melanoma
HCT-116 colon = tested on: HCT-116 colon
K-562 leukemia = tested on: K-562 leukemia
M14 melanoma = tested on: M14 melanoma
XF 498 CNS = tested on: XF 498 CNS
SW-620 colon = tested on: SW-620 colon
786-0 renal = tested on: 786-0 renal
LOX IMVI melanoma = tested on: LOX IMVI melanoma
A549 NSCLC = tested on: A549 NSCLC
COLO 205 colon = tested on: COLO 205 colon
RPMI-8226 leukemia = tested on: RPMI-8226 leukemia
SNB-78 CNS = tested on: SNB-78 CNS
OVCAR-8 ovarian = tested on: OVCAR-8 ovarian
HT29 colon = tested on: HT29 colon
DMS 273 small cell lung = tested on: DMS 273 small cell lung
RXF-631 renal = tested on: RXF-631 renal

COC(=O)C(CC(=O)Nc1ccc(C)cc1)C(=O)C(=O)Nc1ccccc1C(C)C (centres undefined)
TGI (OVCAR-5 ovarian): > 100 µM
TGI (TK-10 renal): > 100 µM
TGI (HL-60(TB) leukemia): > 100 µM
TGI (SF-539 CNS): > 100 µM
TGI (CAKI-1 renal): > 100 µM
TGI (SK-MEL-28 melanoma): > 100 µM
TGI (HOP-62 NSCLC): > 100 µM
TGI (SNB-75 CNS): > 100 µM
TGI (DMS 114 small cell lung): > 100 µM
TGI (NCI-H226 lung): > 100 µM
TGI (SF-295 CNS): > 100 µM
TGI (SNB-19 CNS): > 100 µM
TGI (MOLT-4 leukemia): > 100 µM
TGI (HCC-2998 colon): > 100 µM
TGI (KM20L2 colon): > 100 µM
TGI (SF-268 CNS): > 100 µM
TGI (CCRF-CEM leukemia): > 100 µM
TGI (DLD-1 colon): > 100 µM
TGI (SK-OV-3 ovarian): > 100 µM
TGI (EKVX NSCLC): > 100 µM
TGI (KM12 colon): > 100 µM
TGI (U251 CNS): > 100 µM
TGI (RXF 393 renal): > 100 µM
TGI (SK-MEL-5 melanoma): > 100 µM
TGI (OVCAR-4 ovarian): > 100 µM
TGI (M19-MEL melanoma): > 100 µM
TGI (HOP-18 NSCLC): > 100 µM
TGI (HOP-92 NSCLC): > 100 µM
TGI (IGROV1 ovarian): > 100 µM
TGI (A498 renal): > 100 µM
TGI (NCI-H23 lung): > 100 µM
TGI (ACHN renal): > 100 µM
TGI (HCT-15 colon): > 100 µM
TGI (MALME-3M melanoma): > 100 µM
TGI (OVCAR-3 ovarian): > 100 µM
TGI (UACC-62 melanoma): > 100 µM
TGI (NCI-H522 lung): > 100 µM
TGI (LXFL 529 NSCLC): > 100 µM
TGI (SK-MEL-2 melanoma): > 100 µM
TGI (SN12C renal): > 100 µM
TGI (SR leukemia): > 100 µM
TGI (UO-31 renal): > 100 µM
TGI (NCI-H460 lung): > 100 µM
TGI (UACC-257 melanoma): > 100 µM
TGI (HCT-116 colon): > 100 µM
TGI (K-562 leukemia): > 100 µM
TGI (M14 melanoma): > 100 µM
TGI (XF 498 CNS): > 100 µM
TGI (SW-620 colon): 41.7 µM
TGI (786-0 renal): > 100 µM
TGI (LOX IMVI melanoma): > 100 µM
TGI (A549 NSCLC): > 100 µM
TGI (COLO 205 colon): > 100 µM
TGI (RPMI-8226 leukemia): > 100 µM
TGI (SNB-78 CNS): > 100 µM
TGI (OVCAR-8 ovarian): > 100 µM
TGI (HT29 colon): > 100 µM
TGI (DMS 273 small cell lung): > 100 µM

COC(=O)c1ccccc1NC(=O)C(=O)NNC(=O)c1ccncc1
TGI (TK-10 renal): > 100 µM
TGI (HL-60(TB) leukemia): > 100 µM
TGI (SF-539 CNS): > 100 µM
TGI (CAKI-1 renal): > 100 µM
TGI (SK-MEL-28 melanoma): > 100 µM
TGI (HOP-62 NSCLC): > 100 µM
TGI (SNB-75 CNS): > 100 µM
TGI (DMS 114 small cell lung): > 100 µM
TGI (NCI-H226 lung): > 100 µM
TGI (SF-295 CNS): > 100 µM
TGI (SNB-19 CNS): > 100 µM
TGI (MOLT-4 leukemia): > 100 µM
TGI (HCC-2998 colon): > 100 µM
TGI (KM20L2 colon): > 100 µM
TGI (CCRF-CEM leukemia): > 100 µM
TGI (DLD-1 colon): > 100 µM
TGI (SK-OV-3 ovarian): > 100 µM
TGI (EKVX NSCLC): > 100 µM
TGI (KM12 colon): > 100 µM
TGI (RXF 393 renal): > 100 µM
TGI (SK-MEL-5 melanoma): > 100 µM
TGI (OVCAR-4 ovarian): > 100 µM
TGI (M19-MEL melanoma): > 100 µM
TGI (HOP-18 NSCLC): > 100 µM
TGI (HOP-92 NSCLC): > 100 µM
TGI (IGROV1 ovarian): > 100 µM
TGI (NCI-H23 lung): > 100 µM
TGI (ACHN renal): > 100 µM
TGI (HCT-15 colon): > 100 µM
TGI (MALME-3M melanoma): > 100 µM
TGI (OVCAR-3 ovarian): > 100 µM
TGI (UACC-62 melanoma): > 100 µM
TGI (NCI-H522 lung): > 100 µM
TGI (LXFL 529 NSCLC): > 100 µM
TGI (SN12C renal): > 100 µM
TGI (SR leukemia): > 100 µM
TGI (UO-31 renal): > 100 µM
TGI (NCI-H460 lung): > 100 µM
TGI (UACC-257 melanoma): > 100 µM
TGI (HCT-116 colon): > 100 µM
TGI (M14 melanoma): > 100 µM
TGI (XF 498 CNS): > 100 µM
TGI (SW-620 colon): > 100 µM
TGI (786-0 renal): > 100 µM
TGI (LOX IMVI melanoma): > 100 µM
TGI (A549 NSCLC): > 100 µM
TGI (COLO 205 colon): > 100 µM
TGI (OVCAR-8 ovarian): > 100 µM
TGI (HT29 colon): > 100 µM
TGI (DMS 273 small cell lung): > 100 µM
TGI (RXF-631 renal): > 100 µM
